Consider seven compounds from ChEMBL document CHEMBL1921757, “Small molecule probes of the receptor binding site in the Vibrio cholerae CAI-1 quorum sensing circuit” (Bioorg Med Chem, 2011).

The target in series [1] is T1, CAI-1 autoinducer sensor kinase/phosphatase CqsS (Vibrio cholerae serotype O1 (strain ATCC 39315 / El Tor Inaba N16961)) (UniProt Q9KM66).
T1 sequence (whole entry): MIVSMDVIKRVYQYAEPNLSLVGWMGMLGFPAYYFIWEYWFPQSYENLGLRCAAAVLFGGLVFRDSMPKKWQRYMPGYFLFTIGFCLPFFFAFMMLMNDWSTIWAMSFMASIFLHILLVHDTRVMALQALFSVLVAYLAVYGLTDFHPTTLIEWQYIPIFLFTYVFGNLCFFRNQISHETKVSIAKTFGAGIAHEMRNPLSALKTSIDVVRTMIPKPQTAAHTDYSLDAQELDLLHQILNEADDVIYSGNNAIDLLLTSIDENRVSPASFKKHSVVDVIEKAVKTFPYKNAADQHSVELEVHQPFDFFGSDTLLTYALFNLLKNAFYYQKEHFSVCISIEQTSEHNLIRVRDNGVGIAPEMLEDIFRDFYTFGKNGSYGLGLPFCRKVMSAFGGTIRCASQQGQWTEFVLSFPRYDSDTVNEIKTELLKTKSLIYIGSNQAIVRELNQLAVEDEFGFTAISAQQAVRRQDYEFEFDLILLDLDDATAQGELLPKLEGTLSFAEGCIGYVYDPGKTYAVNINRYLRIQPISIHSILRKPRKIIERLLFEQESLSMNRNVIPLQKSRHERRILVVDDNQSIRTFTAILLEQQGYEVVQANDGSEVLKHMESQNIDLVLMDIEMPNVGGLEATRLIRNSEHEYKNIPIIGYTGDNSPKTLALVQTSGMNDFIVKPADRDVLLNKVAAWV
The experiment in a line: Ratio of compound EC50 to (S)-CAI-1 EC50 for CqsS receptor in cqsA-deficient, luxQ-deficient Vibrio cholerae MM920 harboring cosmid pBB1 carrying Vibrio harveyi luxCDABE gene assessed as induction of quorum sensing regulated bioluminescence after 4 hrs by scintillation counting.

For series [2], the target named is T1, CAI-1 autoinducer sensor kinase/phosphatase CqsS (Vibrio cholerae serotype O1 (strain ATCC 39315 / El Tor Inaba N16961)). Description: Agonist activity at CqsS receptor in cqsA-deficient, luxQ-deficient Vibrio cholerae MM920 harboring cosmid pBB1 carrying Vibrio harveyi luxCDABE gene assessed as maximal quorum sensing regulated bioluminescence at 50 uM after 4 hrs by scintillation counting relative to (S)-CAI-1. Type of series: functional.

The target in series [3] is T2, CAI-1 autoinducer sensor kinase/phosphatase CqsS (Vibrio cholerae serotype O1 (strain ATCC 39315 / El Tor Inaba N16961), UniProt Q9KM66).
T2 sequence (Q9KM66 whole entry): T1 sequence (whole entry)
Description: Agonist activity at CqsS receptor in cqsA-deficient, luxQ-deficient Vibrio cholerae MM920 harboring cosmid pBB1 carrying Vibrio harveyi luxCDABE gene assessed as induction of quorum sensing regulated bioluminescence after 4 hrs by scintillation counting. It counts as functional.

A further series relates to Vibrio cholerae. Description: Antibacterial activity against Vibrio cholerae MM920 assessed as growth inhibition after 4 hrs by spectrophotometry. It counts as organism-based. To be noted: in vivo.
For series [4], the target named is T1, CAI-1 autoinducer sensor kinase/phosphatase CqsS (Vibrio cholerae serotype O1 (strain ATCC 39315 / El Tor Inaba N16961)). The experiment in a line: Antagonist activity at CqsS receptor in Vibrio cholerae MM920 assessed as inhibition of quorum sensing regulated CAI-1 induced bioluminescence after 4 hrs by scintillation counting relative to Ph-CAI-1. Type of series: functional.

The target is the same in series [5]. Description: Ratio of compound IC50 to Ph-CAI-1 IC50 for CqsS receptor in Vibrio cholerae MM920 assessed as inhibition of quorum sensing regulated CAI-1 induced bioluminescence after 4 hrs by scintillation counting.
Series [6] deals with T2, CAI-1 autoinducer sensor kinase/phosphatase CqsS. Description: Antagonist activity at CqsS receptor in Vibrio cholerae MM920 assessed as inhibition of quorum sensing regulated CAI-1 induced bioluminescence after 4 hrs by scintillation counting. Type of series: functional.

Bounds are passed on as bounds.

A word on the Emax: it is the maximal effect, on the per cent scale that the assay sets. The term EC50 denotes the concentration that produces a half-maximal response. As for `CCCCCC(=O)[C@@H](O)CC`, the Ratio EC50 in series [1] was greater than 200. Further, in series [2], the Emax is 27%. Also, the concentration giving a half-maximal response (EC50) in series [3] is greater than 50 µM. Also, the “growth inhibition (GI)” value in the series on Vibrio cholerae is listed as “Not Active”.
In the case of `CCCCCCC(=O)[C@@H](O)CC`, the Ratio EC50 in series [1] was greater than 200. For the same compound, the Emax in series [2] worked out at 59%. Moreover, the EC50 in series [3] is greater than 50 µM. Further, the “growth inhibition (GI)” value in the series on Vibrio cholerae is reported as “Not Active”.
For `CCCCCCCCCCCCC(=O)[C@@H](O)CC`, in series [1], the Ratio EC50 was greater than 200. Besides, in series [2], the Emax worked out at 45%. Moreover, the EC50 in series [3] was greater than 50 µM. The “growth inhibition (GI)” value with Vibrio cholerae is recorded as “Not Active”.
Usually IC50 stands for the concentration that gives 50% inhibition. Take `CCCCCCCCCC(=O)C(O)c1ccc(F)cc1` (racemic): the Imax in series [4] was found to be 125%. Further, the Ratio IC50 in series [5] was found to be 2.7. In addition, the IC50 in series [6] amounted to 137 µM. For the same compound, in the series on Vibrio cholerae, the “growth inhibition (GI)” value is listed as “Not Active”.
`CCCCCCCCCC(=O)C(O)c1cc(F)ccc1F` (racemic): the Imax in series [4] is 48%. For the same compound, the Ratio IC50 in series [5] came to 1.3. In series [6], the IC50 turned out to be 68 µM. Moreover, in the series on Vibrio cholerae, the “growth inhibition (GI)” value was “Not Active”.
For `CCCCCCCCCC(=O)C(O)c1ccc(Br)cc1` (racemic), in series [4], the Imax was found to be 71%. The Ratio IC50 in series [5] worked out at 2.6. Moreover, the IC50 in series [6] was determined as 185 µM. Also, the “growth inhibition (GI)” value with Vibrio cholerae is “Not Active”.
The matching figures for `CCCCCCCCCC(=O)C(O)Cc1ccccc1` (racemic): 124%, 1.9, 136 µM and “Not Active”.
